{
  "source": "paper PMC6286365",
  "about": "(Scientific Reports, 2018)",
  "key": {"GFAP-GFP mice": {"tested_on": "GFAP-GFP mice", "assay": "Striatal IL-1β brain inflammation model: neutrophil infiltration into brain (Ly6b immunohistochemistry)", "format": "in vivo, mouse", "conditions": "10 mg/kg IP 0.5 h before and 12 h after IL-1β; 24 h", "method": "As we have previously shown[11],[18], striatal injection of IL-1β in mice expressing GFP-GFAP in astroglia triggers a release of GFP-labelled EVs that rapidly enter into plasma, resulting in cytokine upregulation in liver and peripheral immune cell migration into brain[11]. […] There were two groups of mice: the first group was sacrificed 2 h after IL-1β administration by heart puncture, and GFP-labeled circulating EVs were measured with liver cytokines. […] Counting of astrocyte-released EV (GFP+) from blood and liver cytokine analysis was conducted by single injection of DPTIP. […]\nCompounds were given 0.5 h before IL-1β dosing. […] (C) Liver cytokine levels under different treatments as measured by qRT-PCR of RNA isolated from fresh frozen liver tissue. Samples were analyzed in triplicate. **p < 0.01 and *p < 0.05 compared to saline control; ^##p < 0.01 and ^#p < 0.05 compared to IL1-β group. (D) Neutrophil levels in brain as measured by immunohistochemistry using coronal brain sections and Ly6b antibody. (E) Quantitation of (D); **p < 0.01 compared to saline control; ^##p < 0.01 compared to IL1-β group.\nCoronal brain sections (30 µm) were prepared using a cryostat microtome (Leica). […] Stereological quantitation was performed using a one-in-five series (270-µm spacing), from the rostral point of bregma +1.10 mm to the caudal point of bregma −0.58 mm as previously described."}, "primary astrocytes": {"tested_on": "primary astrocytes", "assay": "Inhibition of EV release from primary astrocytes (FBS withdrawal, nanoparticle tracking)", "format": "cell-based, rat", "conditions": "2 h treatment, dose range of concentrations", "method": "Independent laboratories have shown that pharmacological and genetic inhibition of nSMase2 blocks EV secretion from glial cells. […] Two hours after treatment, EVs were isolated from the media and quantified by nanoparticle tracking analysis. […] Cells were fixed and immunofluorescence labeling for GFAP was performed.\nMedia was collected after 2 h incubation and centrifuged at 2700 × g for 15 min at 4 °C. Supernatant was collected and the number of extracellular vesicles (EVs) was quantified using ZetaView Nanoparticle Tracker. The mean concentration of EVs/mL (±SEM) was calculated from 4 replicate experiments. […] Astrocytes grown in complete medium were used as no treatment control. Cells were fixed and stained with anti-GFAP antibody (1:500, Sigma). Fluorescence intensity was measured using Image J. (C) Quantitation of fluorescence in (B). Bar graph represents background corrected mean fluorescence intensity measured from 100 astrocytes per condition. Error bars represent standard error of mean. One-way ANOVA followed by Tukey’s posthoc test was performed.\nPotential inhibition of test compounds on EV release from primary astrocytes was carried out as previously described (Dickens et al., 2017). Briefly, rat primary astrocytes were seeded onto 6-well plates at a density of 20,000 cells/well. Twenty-four hours after seeding, astrocytes were washed with PBS and the medium changed to media without FBS. Absence of FBS mimics a trophic factor withdrawal stimulus causing EVs to be released from astrocytes via an nSMase2-dependent pathway. […] The supernatant was collected and the number of EVs quantified using ZetaView Nanoparticle Tracker (Particle Metrix GmBH, Meerbusch, Germany) and the corresponding ZetaVeiw software (8.03.04.01). Nanosphere size standard 100 nm (Thermo Scientific) was used to calibrate the instrument prior to sample readings. […] For each sample 1 mL of the supernatant was injected into the sample-carrier cell and the particle count measured at 5 positions, with 2 cycles of reading per position. […] Mean concentration of EVs/mL (±SEM) was calculated from 4 replicates."}},
  "note": "Entries after “also recorded” stand apart in the source; their conditions may differ.",
  "data": [
    {"compound": "COc1cc(-c2nc(-c3cccs3)c(-c3ccccc3)[nH]2)cc(OC)c1O", "note": "[DPTIP, 2,6-Dimethoxy-4-(5-Phenyl-4-Thiophen-2-yl-1H-Imidazol-2-yl)-Phenol]", "values": [
      {"measurement": "reduction of neutrophil migration into brain compared to IL-1β-treated animals", "setting": "GFAP-GFP mice", "result": "80 ± 23", "unit": "%"},
      {"measurement": "effect on EV release from primary astrocytes", "setting": "primary astrocytes", "result": "dose-dependently inhibited EV release; also recorded: inhibited EV release from astrocytes in a dose dependent manner"}
    ]}
  ]
}
